Here are results for two compounds from paper PMC12081029, “Structural, Spectroscopic, and Docking Analysis of N,O‐Donor Ligand Metal Complex Nanoparticles With Hypolipidemic Effects via Lipoprotein Lipase Activation in High‐Fat Diet Mice” (Chemistry & Biodiversity, 2024).

One may read the MIC as the least concentration at which growth counts as inhibited. A higher MIC goes with a need for much substance. As a reminder, the MBC is the lowest tested concentration that kills the bacteria rather than only halting them. Read a high MBC as weaker bactericidal potency.

“And” between values parts separate entries of the source, which are not always exact repeats. Equal values may be shown once. Read-outs that look alike come from different tables or passages of the source.

Data set [1] concerns Aspergillus niger. More on the design: method as in PMID 16740311. The note with it: cited from earlier work.
The subject of data set [2] is Escherichia coli. The note with it: cited from earlier work.
For data set [3], the system named is Bacillus subtilis. The following applies: cited from earlier work.
Data set [4] concerns Staphylococcus aureus. The note with it: cited from earlier work.
In data set [5] the test system is Salmonella typhi. More on the design: method as in PMID 16740311. The following applies: cited from earlier work.
The test system of data set [6] is Bacillus subtilis. The data set is described as follows: Agar diffusion, inhibition zone (ZOI) and activity index. The following applies: Bacillus subtilis. (A growth-free zone around the sample is the usual read-out of agar diffusion tests.)
The test system of data set [7] is lipoprotein lipase (L. lipase). The data set is described as follows: Serum L. lipase activity in high-fat diet mice (fluorometric kit). Format: in vivo. The note with it: HFD C57BL/6 mice; for L. lipase (serum enzyme activity): 4 mg kg^−1 body weight in DMF, 3 months, mean ± SD. As to the method: (§1) This study employed 8‐week‐old male C57BL/6 mice of matched weight (around 20–25 g) from an inbred “genetically identical” strain. The mice were purchased from the National Research Center's Animal House. Then, they were subdivided into five groups, each group containing eight mice; four groups were treated with CETZ.2HCl (antihistamine drug) and its metal complexes, whereas one group was left untreated and classified as a control group. Animals were housed in modular plastic veterinary cages at air‐conditioned room, under pathogen‐free conditions. Mice were fed HFD, which consisted of carbs 42.0%, fat 23.0%, protein 17.0%, fiber 3.0%, minerals 5.0%, and moisture 10.0% for 3 months, together with administration of either CETZ.2HCl or its metal complexes (4 mg kg ^−1 body weight) in DMF [37]. Experiments were performed in accordance with the regulations of the Animal Care and Use Committee of the College of Veterinary Medicine, Mansoura University (MU‐ACUC), Egypt; MU‐ACUC (PHARM.R.24.02.30), complied with “Guide for the Care and Use of Laboratory Animals” (National Research Council publication 8th ed., USA, 2011).
(§2) Specimens of blood were gathered from the retro‐orbital sinus, under halothane (1.5 percent v/v halothane in oxygen) anesthesia via inhalation. The collected blood was allowed to clot, by centrifugation at 1600 rpm for 20 min, to obtain serum. Isolated sera were maintained at −80°C until tests of liver function in addition to lipid profiles were performed. For estimation of L. lipase activity, fluorometric L. lipase activity assay kit was utilized following the manufacturer's protocol (Cat. No. STA‐610, Cell BIOLABS INC., San Diego, USA). Serum T. chol. LDL, HDL, TG, ALT (alanine aminotransferase), AST (aspartate aminotransferase), and ALP (alkaline phosphatase) were examined with Roche kits using COBAS Integra 400 and COBAS Integra‐400 plus (Roche Diagnostics Limited, Switzerland).

The test system of data set [8] is Aspergillus niger. The experiment in a line: MIC determination.
Data set [9] has as its system Salmonella typhi. The experiment in a line: MIC / MBC determination. The class given is cell-based. The note with it: Salmonella typhi.
In data set [10] the test system is Salmonella typhi. The data set is described as follows: Agar diffusion, inhibition zone (ZOI) and activity index. The class given is cell-based. The note with it: Salmonella typhi.
For data set [11], the system named is Escherichia coli. Described as above. The note with it: Escherichia coli.
Data set [12] deals with Staphylococcus aureus. The data set is described as above. The following applies: Staphylococcus aureus.
Data set [13] relates to Escherichia coli. The experiment in a line: MIC / MBC determination.
Data set [14] in a line: Serum lipid profile in high-fat diet mice. The class given is in vivo. The note with it: HFD C57BL/6 mice, 4 mg kg^−1 body weight, 3 months, mean ± SD. How it is done: as §1, §2
Data set [15] deals with Bacillus subtilis. The data set is described as follows: MIC / MBC determination.
Data set [16] concerns Aspergillus niger. The experiment in a line: Agar diffusion, inhibition zone (ZOI) and activity index. The note with it: Aspergillus niger.
The subject of data set [17] is Staphylococcus aureus. The experiment in a line: MIC / MBC determination.
The test system of data set [18] is Aspergillus terreus. The data set is described as follows: MIC determination.
For data set [19], the system named is Aspergillus terreus. The experiment in a line: Agar diffusion, inhibition zone (ZOI) and activity index.
Data set [20] in a line: Serum liver function enzymes in high-fat diet mice. The class given is in vivo. The note with it: HFD C57BL/6 mice, 4 mg kg^−1 body weight, 3 months, mean ± SD. As to the method: as §1, §2
Where [21] appears, read: Table 9, preceding research ref [68].
The mark [22] stands for this setting: 10^−3 M in DMF, 5 mm holes, 20 h at 37°C.
Where [23] appears, read: ZOI of compound / ZOI of standard (ampicillin) × 100.
Where [24] appears, read: ZOI of compound / ZOI of standard (gentamicin) × 100.
Where [25] appears, read: 10^−3 M in DMF, 5 mm holes, 7 days at 30°C.
[26] abbreviates: ZOI of compound / ZOI of standard (colitrimazole) × 100.

For the compound `O.O.O=C([O-])COCCN1CCN(C(c2ccccc2)c2ccc(Cl)cc2)CC1.O=[N+]([O-])[O-].[Cu+2].c1ccc(-c2ccccn2)nc1` (centres unmarked) [[(Cu(CETZ)(Bipy)(H2O)2(NO3)]], the AI in data set [1] (Table 9, Aspergillus niger ref [68]) is on record as 88.89; in data set [2] (Table 9, Escherichia coli ref [68]), 113.3; in [3] (Table 9, Bacillus subtillis ref [68]) it was 55.3; in [4] (Table 9, Staphylococcus aureus ref [68]), 105.7; in data set [5] (Table 9, Salmonella typhi ref [68]), 59.9. Besides, in data set [1] (setting [21]), the “Aspergillus niger (inhibition zone)” value is listed as 17.6 ^+ ^1 ± 0.11. The “Escherichia coli (inhibition zone)” value in data set [2] (setting [21]) was 22.1 ^+ ^2 ± 0.005. For the same compound, the “Bacillus subtillis (inhibition zone)” value in data set [3] (setting [21]) is 15.7 ^+ ^1 ± 0.001. Further, in [4] (setting [21]), the “Staphylococcus aureus (inhibition zone)” value is 24 ^+ ^3 ± 0.13. The “Salmonella typhi (inhibition zone)” value in [5] (setting [21]) is listed as 12.4 ^+ ^1 ± 0.22.

For [Zn(CETZ)(Phen)(H2O)2Cl] [complex (2)], the ZOI in [6] (setting [22]) is given as 21.2 ^+ ^2 ±1.04 mm; in [10] (setting [22]), 18.0 ^+ ^2 ±0.17 mm; in [11] (setting [22]), 7.9^NS ±0.34 mm; in data set [12] (setting [22]), 15.2 ^+ ^1 ±0.74 mm; in data set [16] (setting [25]), 17.6 ^+ ^1 ±0.43 mm; in data set [19] (setting [25]) it was 12.0^NS ±1.71 mm. Besides, the AI stood at 74.65% in data set [6] (setting [23]); 86.9% in data set [10] (setting [24]); 40.5% in [11] (setting [24]); 66.9% in [12] (setting [23]); 88.88% in [16] (setting [26]); 68.57% in data set [19] (setting [26]). Also, the “L. lipase (serum enzyme activity)” value in data set [7] came to 108.88 U/L; in data set [7] (listed as Zn-CETZ Complex), 108.88±20.0 U/L. The “mean L. lipase activity” value in [7] (rounded, 4 mg kg^−1 body weight) is 108.9 U L^−1. The MIC was 0.025 µg/mL and 0.025 ± 0.01 µg/mL in [8]; 0.050 µg/mL and 0.050 ± 0.007 µg/mL in data set [9]; 0.050 µg/mL and 0.050 ± 0.02 µg/mL in data set [13]; 0.050 ± 0.01 µg/mL in data set [15]; 0.050 µg/mL and 0.050 ± 0.007 µg/mL in data set [17]; 0.050 µg/mL and 0.050 ± 0.02 µg/mL in data set [18]. For the same compound, the MBC in data set [9] is 0.065 ± 0.014 µg/mL; in [13], 0.063 ± 0.015 µg/mL; in [17] it was 0.057 µg/mL and 0.057 ± 0.002 µg/mL. The same compound showed an HDL in data set [14] of 115.75 ± 13.32 mg/dL. Further, in [14], the LDL stood at 71.63 ± 6.5 mg/dL. For the same compound, the “Total Chol.” value in [14] was 155.5 ± 16.01 mg/dL. Also, the Trig in [14] is 70.63 ± 6.05 mg/dL. In data set [20], this compound returned an ALP of 49.63 ± 6.16 U L^−1. The compound also came in with an ALT in [20] of 164.87 ± 35.27 U L^−1. In data set [20], this compound had an AST of 156.5 ± 16.12 U L^−1.
